# Results reported in patent US20240166687A1, “REGULATORY T CELL-INDUCING PEPTIDE AND COMPOSITION INCLUDING SAME FOR PREVENTING OR TREATING AUTOIMMUNE DISEASE” (IUCF-HYU (INDUSTRY-UNIVERSITY COOPERATION FOUNDATION …, priority 2021, published 2024).
# Entries after “also recorded” stand apart in the source; their conditions may differ.
# B1: KIKKVKKKGRKGSKIKKVKKKGRKGGKMLKKRSPLTTGVYVKMAATEAECEKQFQPYFIPIN (peptide)
# chain: KIKKVKKKGRKGSKIKKVKKKGRKGGKMLKKRSPLTTGVYVKMAATEAECEKQFQPYFIPIN
# notes: dNP2-ctCTLA-4 variant
# Assays:
# [1] = test system: multiple sclerosis animal model; assay: Analysis of efficiency in multiple sclerosis (MS) animal model (MOG35-55/CFA + PTX); format: in vivo, C57BL/6 mice; details: for clinical symptoms (clinical score): 100 μg (5 mg/kg) intraperitoneally once a day from day 7 after PTX; for clinical symptoms (clinical score) / number of infiltrated lymphocytes in the spinal cord / number of Treg cells (spinal cord): comparator as named in the value; for number of infiltrated lymphocytes in the spinal cord / number of Treg cells (spinal cord): 100 μg intraperitoneally once a day from day 7
# Method: 8-week-old female C57BL/6 mice were purchased from Orient Bio (Daejeon, Korea). All animal experiments were conducted in compliance with the animal experiment operation regulations of the Institutional Animal Care and Use Committee of Hanyang University. The mice were acclimatized for 2 weeks before the experiment. The mice were raised in a breeding room maintained at temperature 22±2° C. and 40-60% humidity with free access to feed. The light and dark cycles were adjusted at 12-hour intervals. Multiple sclerosis was induced by subcutaneous immunization using a MOG35-55/CFA emulsion PTX kit (Hooke Labs, Lawrence, MA, USA) according to the manufacturer's protocol. The mice were anesthetized with isoflurane and MOG35-55/CFA was subcutaneously injected bilaterally, followed by intraperitoneal injection of PTX (pertussis toxin) 2 hours and 24 hours later. The mice were randomly assigned to different groups after MOG immunization. Because paralysis due to immune response begins on day 7 after the injection of PTX, 100 μg (5 mg/kg) of the samples according to the present disclosure were intraperitoneally injected to the groups once a day from day 7. Each group was monitored every day after inducing multiple sclerosis and clinical symptoms were recorded. The clinical symptoms were evaluated based on the scoring system described in Table 2. The higher clinical scores indicate severer symptoms. The mice were euthanized at the end of the experiments and lymphocytes were isolated from the spinal cords. The isolated spinal cords were treated at 37° C. with 1 mg/mL of DNase 1 (10104159001; Sigma-Aldrich) and 1 mg/mL of collagenase D (11088866001; Sigma-Aldrich) and incubated at 80 rpm on a shaker for 40 minutes. After the enzyme treatment, 500 mM EDTA was added and lymphocytes were isolated by Percoll (GE Healthcare, Little Chalfont, UK) density-gradient centrifugation. The isolated infiltrated lymphocytes were restimulated with a cell stimulation cocktail (plus protein transport inhibitors) (ThermoFisher) at 37° C. for 4 hours and stained with anti-mouse CD4. The cells were fixed, permeabilized using a Foxp3/transcription factor staining buffer set (eBioscience) and stained with anti-mouse IFN-γ, anti-mouse IL-17 or anti-mouse Foxp3. The cells were analyzed using a FACS Canto flow cytometer and the FlowJo software version 10.7.1. For histological analysis, paraffin blocks of the spinal cord tissues were deparaffinized and treated with luxol fast blue. For combination staining, hematoxylin and eosin were used (Dako). The cells infiltrated in the white matter region of the spinal cord tissues were counted using the Image J software version 2.0.0. The increased number of Th1 and Th17 immune cells in the spinal cord means more severe multiple sclerosis, and the increased number of Treg cells means that the function of preventing or treating autoimmune disease such as multiple sclerosis is improved as the tolerance to self-antigens is maintained and the excessive response by the immune system is prevented.
# [2] = test system: Th17 cells differentiated from splenocytes isolated from mouse; assay: Analysis of effect under Th17 differentiation conditions (flow cytometry of IL-17A and Foxp3); format: cell-based; details: sample 2 μM; for effect of suppressing immune response (decrease of IL-17 and increase of Foxp3): flow cytometry 4 days later, comparator as named in the value (Th17/PBS control, K1, AP-K2); for effect of suppressing immune response compared to the dNP2-ctCTLA-4 group / order of the reduction of IL-17 and the increase of Foxp3 among AP-K2 variants: 4 days; for effect of suppressing immune response compared to the dNP2-ctCTLA-4 group: versus dNP2-ctCTLA-4 positive control
# Text: Th17 cells are a subset of CD4 T cells. The Th17 cells are known to secrete a cytokine known as IL-17 and cause inflammation. This is the major cause of autoimmune disease. And, Treg cells (regulatory T cells) are known to suppress and regulate inflammation by expressing the transcription factor called Foxp3. Accordingly, since it is thought that the effect of preventing and treating autoimmune disease may be achieved by regulating inflammation by inhibiting Th17 cells (IL-17) and increasing Treg (Foxp3) cells, the effect of the peptides of the present disclosure was investigated.
# Undifferentiated CD4 T cells (naive CD4 T cells) were isolated from splenocytes of 6- to 8-week-old C57BL/6 mice using a mouse undifferentiated CD4+ T cell (naive CD4 T cell) isolation kit (Miltenyi Biotec, Auburn, CA, USA) according to the manufacturer's protocols. For RNAseq, the undifferentiated CD4 T cells (naive CD4 T cells) from the Foxp3-GFP mice were purified, differentiated into Th17 cells and sorted into Foxp3^+ and Foxp3^− populations using a cell sorter (FACS Aria cell sorter BD Biosciences, Franklin Lakes, NJ, USA). The purified undifferentiated CD4 T cells (naive CD4 T cells) were activated with plate-bound anti-CD3 (2 or 5 μg/mL, 553057; BD Pharmingen, La Jolla, CA) and anti-CD28 (2 or 5 μg/mL, 553294; BD Pharmingen, La Jolla, CA) antibodies and differentiated by treating with the following cytokine cocktails in a 96-well plate for 3 or 4 days: Th0; recombinant human TGF-β(R&D Systems) 0.25 ng/mL. Th1; anti-IL-4 (11B11; 16-7041-85; eBioscience) 5 μg/mL, IL-2 (212-12; Peprotech, Rocky Hill, NJ) 50 U/mL, recombinant murine IL-12 (212-12; Peprotech) 2 ng/mL, recombinant human TGF-β (R&D Systems) for Th1 0.25 ng/mL. Th17; anti-IFN-γ (XMG1.2; 16-7311-85; eBioscience) 5 μg/mL, anti-IL-4 (11B11; 16-7041-85; eBioscience) 5 μg/mL, recombinant murine TGF-β (7666-MB, R&D Systems, Minneapolis, MN) 2 ng/mL, IL-6 (216-16; Peprotech) 30 ng/mL, IL-23 (1887-ML-101; R&D Systems) 20 ng/mL, IL-1β (401-ML-010; R&D Systems) 20 ng/mL, and IL-2 (Peprotech) 50 U/mL. Treg; IL-2 (Peprotech) 50 U/mL and TGF-β (R&D Systems) 0.5 ng/mL.
# The cells were cotreated with the cytokine cocktails and the samples (2 μM). 4 days later, they were analyzed by flow cytometry using IL-17 and Foxp3 fluorescent antibodies. In some experiments, 5 μM PKC-η pseudosubstrate inhibitor (sc-3096; Santa Cruz) or 5 μM ERK inhibitor (UO126, 662005; Sigma) were also added.
# For flow cytometric analysis of living cells only, dead cells were excluded using the Zombie Aqua™ fixable viability kit (Biolegend) before staining with antibodies at room temperature for 10 minutes. After washing, surface proteins of the differentiated Th1, Th17 and Treg cells were stained with monoclonal antibodies at 4° C. for 15 minutes. To determine intracellular cytokine levels, the cells were restimulated with a cell stimulation cocktail (plus protein transport inhibitors) (ThermoFisher) at 37° C. for 4 hours and then stained with surface marker antibodies. The cells were then fixed, permeabilized using a Foxp3/transcription factor staining buffer set (eBioscience) and stained with anti-mouse IFN-γ, anti-mouse IL-17 and anti-mouse Foxp3. The cells were analyzed using a FACS Canto II flow cytometer and the FlowJo software version 10.7.
Molecule,number of infiltrated lymphocytes in the spinal cord [1],effect of suppressing immune response (decrease of IL-17 and increase of Foxp3) [2],also measured
KIKKVKKKGRKGSKIKKVKKKGRKGGKMLKKRSPLTTGVYVKM (dNP2-KSY) [deleted variant of dNP2-ctCTLA-4],significantly smaller number of infiltrated lymphocytes in the spinal cord as compared to the TAT-ctCTLA-4 group and the PBS group,,clinical symptoms (clinical score) [1]: significantly superior in terms of clinical symptoms as compared to the TAT-ctCTLA-4 group and the PBS group
KIKKVKKKGRKGSKIKKVKKKGRKKMLKKRS (dNP2-K1) [deleted variant of dNP2-ctCTLA-4 with only the K motif],significantly smaller number of infiltrated lymphocytes in the spinal cord as compared to the TAT-ctCTLA-4 group and the PBS group,exhibited the activity of inhibiting immune response,
"KMLKKRS (K1) [Example K1, single K motif of CTLA4 without CPP, fatty acid or linker]",,did not show significant difference from Th17 (control group),effect in the multiple sclerosis animal model (overall) ([1]; 100 μg intraperitoneally once a day from day 7 to day 18): does not show significant effect on its own in the multiple sclerosis animal model
KMLKKRSGGGGSKMLKKRS (K2(G4S)) [K2 (G4S)],significantly number of infiltrated lymphocytes in the spinal cord as compared to the K1 group,the activity of inhibiting immune cells is significantly superior,clinical symptoms (clinical score) [1]: significantly remarkable superior result in clinical symptoms than the K1 group; number of Treg cells (spinal cord) [1]: larger number of Treg cells than the K1 group
"KMLKKRSKMLKKRS (K2) [Example K2, two K motifs of CTLA4 linked, no linker]",significantly smaller number of infiltrated lymphocytes in the spinal cord than the PBS (control group),significantly better effect of suppressing immune response than the PBS (control group); also recorded: significantly superior effect of suppressing immune response as compared to the PBS group,effect of suppressing immune response compared to the dNP2-ctCTLA-4 group [2]: comparable effect; clinical symptoms (clinical score) [1]: significantly improved result for clinical symptoms as compared to the PBS group
KMLKKRSKMLKKRSKMLKKRS (K3) [Example K3],significantly number of infiltrated lymphocytes in the spinal cord as compared to the K1 group,significantly better effect of suppressing immune response than the PBS (control group); also recorded: significantly superior effect of suppressing immune response as compared to the PBS group,effect of suppressing immune response compared to the dNP2-ctCTLA-4 group [2]: comparable effect; effect of suppressing immune response (decrease of IL-17 and increase of Foxp3) ([2]; listed as Example 4): the activity of inhibiting immune cells is significantly superior; clinical symptoms (clinical score) [1]: significantly remarkable superior result in clinical symptoms than the K1 group; number of Treg cells (spinal cord) [1]: larger number of Treg cells than the K1 group
PPTEPECE (P) [motif of CTLA4],,did not show significant difference from the dNP2 group or the Th17 group,
"RRRWCKRRRGGAMLAAASAMLAAAS (AP-K2 KA) [negative control, lysine and arginine residues of AP-K2 replaced with alanine]",,decreased slightly,
RRRWCKRRRGGAMLKKRSAMLKKRS (AP-K2 1KA),,decreased significantly,
RRRWCKRRRGGKALKKRSKALKKRS (AP-K2 MA),,,"order of the reduction of IL-17 and the increase of Foxp3 among AP-K2 variants [2]: in the order of the AP-K2 SA group, the AP-K2 2KA group, the AP-K2 3KA group and the AP-K2 MA group"
RRRWCKRRRGGKMAKKRSKMAKKRS (AP-K2 LA),,slightly decreased function of AP-L2,
RRRWCKRRRGGKMLAKRSKMLAKRS (AP-K2 2KA),,,"order of the reduction of IL-17 and the increase of Foxp3 among AP-K2 variants [2]: in the order of the AP-K2 SA group, the AP-K2 2KA group, the AP-K2 3KA group and the AP-K2 MA group"
RRRWCKRRRGGKMLKARSKMLKARS (AP-K2 3KA),,,"order of the reduction of IL-17 and the increase of Foxp3 among AP-K2 variants [2]: in the order of the AP-K2 SA group, the AP-K2 2KA group, the AP-K2 3KA group and the AP-K2 MA group"
RRRWCKRRRGGKMLKKASKMLKKAS (AP-K2 RA),,decreased significantly,
RRRWCKRRRGGKMLKKRAKMLKKRA (AP-K2 SA),,,"order of the reduction of IL-17 and the increase of Foxp3 among AP-K2 variants [2]: in the order of the AP-K2 SA group, the AP-K2 2KA group, the AP-K2 3KA group and the AP-K2 MA group"
SPLTTGV (S) [motif of CTLA4],,did not show significant difference from the dNP2 group or the Th17 group,
"YFIPIN (Y2) [Example Y2, motif of CTLA4]",,did not show significant difference from the dNP2 group or the Th17 group,
"YVKM (Y1) [Example Y1, motif of CTLA4]",,did not show significant difference from the dNP2 group or the Th17 group,
B1,significantly larger number of infiltrated lymphocytes in the spinal cord as compared to the PBS group,,clinical symptoms (clinical score) [1]: significantly lower clinical symptoms as compared to the PBS group
